Experimental data: ChEMBL document CHEMBL4385641 (Bioorg Med Chem, 2019)

Columns and labels:
[1] = Drug uptake in C57BL6 mouse brain at […], po by LC-MS/MS analysis; assay type: ADME, organism-based; conditions: in vivo
[2] = Ratio of Cmax in brain to plasma in C57BL6 mouse at […], po by LC-MS/MS analysis; assay type: ADME, organism-based
[3] = organism: Homo sapiens; assay: Selectivity ratio of Ki for displacement of [3H]-CP55940 from human CB2 receptor expressed in CHO cell membranes to Ki for displacement of [3H]-CP55940 from human CB1 receptor expressed in CHO cell membranes
[4] = Half life in human liver microsomes at 1 uM by mass mass spectrometric method; assay type: ADME, Microsome; conditions: microsomes, 1 µM
[5] = Cmax in C57BL6 mouse plasma at […], po by LC-MS/MS analysis; assay type: ADME, organism-based; parameters: dose 2.5 mg/kg, route oral
[6] = Permeability across apical to basolateral side in MDCK-MDR1 cells at 10 uM incubated for 1 hr by mass spectrometric method; assay type: ADME, cell-based, Canis lupus familiaris; conditions: dog, mdck-mdr1, 1 h
[7] = Lipophilicity, log D of compound; assay type: physicochemical; conditions: octanol/water
[8] = target: T1, Cannabinoid receptor 1 (Homo sapiens, UniProt P21554); assay: Inverse agonist activity at human CB1 receptor expressed in CHOK1 cells co-expressing Galphaq16 assessed as apparent equilibrium constant after 90 secs by […]-4 AM dye-based FLIPR assay; assay type: cell-based
T1 sequence (P21554 whole entry): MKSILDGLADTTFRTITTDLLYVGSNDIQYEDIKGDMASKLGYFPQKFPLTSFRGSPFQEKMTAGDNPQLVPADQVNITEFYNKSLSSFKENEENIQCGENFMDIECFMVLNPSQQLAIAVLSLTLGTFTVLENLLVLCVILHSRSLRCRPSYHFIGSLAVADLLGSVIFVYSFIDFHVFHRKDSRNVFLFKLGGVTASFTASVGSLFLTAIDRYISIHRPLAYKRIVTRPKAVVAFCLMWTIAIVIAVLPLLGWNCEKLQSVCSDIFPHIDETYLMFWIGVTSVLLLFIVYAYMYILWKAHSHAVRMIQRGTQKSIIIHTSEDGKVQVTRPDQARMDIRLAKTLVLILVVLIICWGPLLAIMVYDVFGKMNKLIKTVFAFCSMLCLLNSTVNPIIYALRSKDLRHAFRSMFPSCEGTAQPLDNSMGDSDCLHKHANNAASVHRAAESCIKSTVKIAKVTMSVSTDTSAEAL

[9] = Intrinsic clearance in human liver microsomes at 1 uM incubated for up to 120 mins by mass mass spectrometric method; assay type: ADME, Microsome; conditions: microsomes, 2 h, 1 µM
[10] = Half life in C57BL6 mouse plasma at […], po by LC-MS/MS analysis; assay type: ADME, organism-based
[11] = target: T1, Cannabinoid receptor 1; assay: Displacement of [3H]-CP55940 from human CB1 receptor expressed in CHO cell membranes
[12] = target: Cannabinoid receptor 2 (Homo sapiens, UniProt P34972); assay: Displacement of [3H]-CP55940 from human CB2 receptor expressed in CHO cell membranes
Chain of Cannabinoid receptor 2 (P34972 whole entry): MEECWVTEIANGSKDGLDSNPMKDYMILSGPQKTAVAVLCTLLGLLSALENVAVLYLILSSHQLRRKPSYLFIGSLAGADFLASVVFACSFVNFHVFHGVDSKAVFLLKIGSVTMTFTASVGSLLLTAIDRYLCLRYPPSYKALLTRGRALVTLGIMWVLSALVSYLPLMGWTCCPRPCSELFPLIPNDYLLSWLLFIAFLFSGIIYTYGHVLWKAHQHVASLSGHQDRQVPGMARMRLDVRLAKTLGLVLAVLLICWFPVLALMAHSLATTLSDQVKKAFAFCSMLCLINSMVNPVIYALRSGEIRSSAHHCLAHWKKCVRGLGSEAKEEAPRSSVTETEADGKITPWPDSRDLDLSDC

[13] = target: T1, Cannabinoid receptor 1; assay: Inverse agonist activity at human CB1 receptor expressed in CHOK1 cells co-expressing Galphaq16 assessed as inhibition of calcium mobilization after 90 secs by […]-4 AM dye-based FLIPR assay; assay type: functional, cell-based
[14] = Cmax in C57BL6 mouse plasma at 0.3 mg/kg, po by LC-MS/MS analysis; assay type: ADME, organism-based; parameters: dose 0.3 mg/kg, route oral

Drug uptake [1] [%]	Ratio [2]	t1/2 [4] [h]	Cmax [5] [ng/mL]	permeability [6] [%]	logD [7]	Ke(app) [8] [nM]	CLH [9] [µL/min/mg]	half-life [10] [h]	Ki [11] [nM]	Ki [12] [nM]	EC50 [13] [nM]	Cmax [14] [ng/mL]	Ki ([12]; cho) [nM]	Compound	Ratio Ki [3]
< 20	0.16	2.77	50	0.2	4.1	170	8	6	780	–	–	–	–	N=C(NC1CCN(c2ncnc3c2nc(-c2ccccc2Cl)n3-c2ccc(Cl)cc2)CC1)c1ccc(F)cc1	> 7
< 20	0.18	4.57	62	–	–	1.6	5	1.6	3	860	132	–	–	O=S(=O)(NC1CCN(c2ncnc3c2nc(-c2ccccc2Cl)n3-c2ccc(OC(F)F)nc2)CC1)c1ccc(F)c(F)c1	290
–	–	–	–	–	–	0.8	–	–	0.38	8500	287	–	–	O=S(=O)(NC1CCN(c2ncnc3c2nc(-c2ccccc2Cl)n3-c2ccc(Cl)cc2)CC1)c1ccccc1F	22000
–	0.31	–	12	< 0.1	–	0.5	–	5.3	1.7	> 10000	–	–	–	O=S(=O)(NC1CCN(c2ncnc3c2nc(-c2ccccc2Cl)n3-c2ccc(Cl)cc2)CC1)c1ccc(F)c(F)c1	> 5000
–	0.45	–	38	0.1	–	54	–	7.4	2.4	3100	–	–	–	Clc1ccc(-n2c(-c3ccccc3Cl)nc3c(N4CCC(Nc5ccccn5)CC4)ncnc32)cc1	1300
–	–	–	–	–	–	8	–	–	5	330	–	4	–	O=S(=O)(NC1CCCCC1)NC1CCN(c2ncnc3c2nc(-c2ccccc2Cl)n3-c2ccc(Cl)cc2)CC1	66
–	–	1.68	–	–	–	–	12	–	7	–	–	–	> 10000	O/N=C(\c1ccc(F)cc1)C1CCN(c2ncnc3c2nc(-c2ccccc2Cl)n3-c2ccc(Cl)cc2)CC1 (stereo in doubt; 21)	–
–	–	–	–	–	4.6	300	–	–	–	–	–	–	–	N=C(Nc1ccc(F)cc1)NC1CCN(c2ncnc3c2nc(-c2ccccc2Cl)n3-c2ccc(Cl)cc2)CC1	–
–	–	–	–	0.1	–	0.6	–	–	0.98	6000	94.8	–	–	O=C(NC1CCN(c2ncnc3c2nc(-c2ccccc2Cl)n3-c2ccc(Cl)cc2)CC1)c1ccccc1F	6000
